Tests used:
Rattus norvegicus [1] = test: Anti-hypertensive activity in conscious spontaneously hypertensive Okamoto rat assessed as reduction in systolic blood pressure at 1 mg/kg, po measured up to 6 hrs post dose relative to control; assay type: functional; set-up: scale not given: the % may be the effect or the level left
Rattus norvegicus [2] = test: Anti-hypertensive activity in conscious spontaneously hypertensive Okamoto rat assessed as reduction in systolic blood pressure at 0.3 mg/kg, po measured up to 6 hrs post dose relative to control; assay type: functional; set-up: scale not given: the % may be the effect or the level left
[3] = molecular target: 5-hydroxytryptamine receptor 2C (Homo sapiens, UniProt P28335); test: Agonist activity at human 5-HT2C receptor expressed in mouse NIH/3T3 cells assessed as induction of IP3 formation after 0.5 hrs; assay type: functional, cell-based
5-hydroxytryptamine receptor 2C, sequence (P28335 whole entry): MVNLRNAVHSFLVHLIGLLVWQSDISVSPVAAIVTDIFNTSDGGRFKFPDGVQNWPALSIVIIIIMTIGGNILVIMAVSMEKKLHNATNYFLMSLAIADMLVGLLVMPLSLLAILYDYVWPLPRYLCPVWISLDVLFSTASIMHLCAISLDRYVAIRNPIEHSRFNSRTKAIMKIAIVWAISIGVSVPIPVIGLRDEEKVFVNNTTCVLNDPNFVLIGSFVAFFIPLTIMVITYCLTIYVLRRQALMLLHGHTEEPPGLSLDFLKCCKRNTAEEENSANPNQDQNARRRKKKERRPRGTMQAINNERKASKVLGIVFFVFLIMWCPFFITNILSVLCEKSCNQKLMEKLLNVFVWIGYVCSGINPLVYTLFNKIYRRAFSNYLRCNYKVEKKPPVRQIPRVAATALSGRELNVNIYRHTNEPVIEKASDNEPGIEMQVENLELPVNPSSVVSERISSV

Homo sapiens = species: Homo sapiens; test: Antagonist activity at nAChR (unknown origin) relative to (+/-)-mecamylamine
[4] = Inhibition of bacterial DNA gyrase subunit B; set-up: species or system Bacteria
Rattus norvegicus [5] = test: Anti-hypertensive activity in conscious spontaneously hypertensive Okamoto rat assessed as reduction in systolic blood pressure at 10 mg/kg, po measured up to 6 hrs post dose relative to control; assay type: functional; set-up: scale not given: the % may be the effect or the level left
HeLa = test: Cytotoxicity against human HeLa cells assessed as reduction in protein synthesis at 0.05 uM; assay type: functional
MCF7 = test: Cytotoxicity against human MCF7 cells assessed as reduction in protein synthesis; assay type: functional, cell-based
[6] = system: Trypanosoma brucei brucei; test: Antitrypanosomal activity against Trypanosoma brucei brucei after 72 hrs by resazurin-based fluorescence assay; assay type: functional
Rattus norvegicus [7] = test: Anti-hypertensive activity in conscious spontaneously hypertensive Okamoto rat assessed as reduction in systolic blood pressure at 3 mg/kg, po measured up to 6 hrs post dose relative to control; assay type: functional; set-up: scale not given: the % may be the effect or the level left
Matrilysin = molecular target: T1, Matrilysin (Homo sapiens, UniProt P09237); test: Inhibition of MMP7 (unknown origin) expressed in Escherichia coli BL21(DE3) using Mca-Pro-Leu-Gly-Leu-Dpa-Ala-Arg-NH2 as substrate after 20 to 30 mins by spectrofluorimetric analysis
T1 sequence (P09237 whole entry): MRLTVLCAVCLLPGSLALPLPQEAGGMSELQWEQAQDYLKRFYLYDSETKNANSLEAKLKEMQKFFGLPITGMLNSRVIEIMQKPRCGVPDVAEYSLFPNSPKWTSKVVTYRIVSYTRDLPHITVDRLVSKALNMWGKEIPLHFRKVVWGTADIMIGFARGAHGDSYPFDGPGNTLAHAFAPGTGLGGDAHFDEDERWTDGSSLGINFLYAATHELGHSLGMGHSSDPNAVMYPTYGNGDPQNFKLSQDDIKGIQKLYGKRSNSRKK

Collagenase 3 = Collagenase 3 (Homo sapiens, UniProt P45452); test: Inhibition of MMP13 (unknown origin) expressed in Escherichia coli BL21(DE3) using Mca-Pro-Leu-Gly-Leu-Dpa-Ala-Arg-NH2 as substrate after 20 to 30 mins by spectrofluorimetric analysis
Interstitial collagenase = Interstitial collagenase (Homo sapiens, UniProt P03956); test: Inhibition of human interstitial recombinant N-terminal MMP1 expressed in Escherichia coli BL21(DE3) using Mca-Pro-Leu-Gly-Leu-Dpa-Ala-Arg-NH2 as substrate after 20 to 30 mins by spectrofluorimetric analysis
Interstitial collagenase, sequence (P03956 whole entry): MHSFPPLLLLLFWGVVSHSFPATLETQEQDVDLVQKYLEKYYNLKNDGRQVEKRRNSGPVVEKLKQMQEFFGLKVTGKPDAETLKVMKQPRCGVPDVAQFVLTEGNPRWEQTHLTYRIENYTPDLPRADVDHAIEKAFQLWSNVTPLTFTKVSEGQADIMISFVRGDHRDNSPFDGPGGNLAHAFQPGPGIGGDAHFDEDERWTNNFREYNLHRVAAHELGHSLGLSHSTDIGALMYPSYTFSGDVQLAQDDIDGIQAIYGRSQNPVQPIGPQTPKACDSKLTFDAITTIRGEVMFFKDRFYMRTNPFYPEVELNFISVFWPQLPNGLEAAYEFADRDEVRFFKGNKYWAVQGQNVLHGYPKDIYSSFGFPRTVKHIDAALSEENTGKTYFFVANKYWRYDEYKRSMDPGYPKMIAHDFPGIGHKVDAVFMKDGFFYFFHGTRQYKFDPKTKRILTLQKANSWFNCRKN

[8] = molecular target: Retinoic acid receptor RXR-gamma (Homo sapiens, UniProt P48443); test: Agonist activity at RXRgamma (unknown origin)
Retinoic acid receptor RXR-gamma, sequence (P48443 whole entry): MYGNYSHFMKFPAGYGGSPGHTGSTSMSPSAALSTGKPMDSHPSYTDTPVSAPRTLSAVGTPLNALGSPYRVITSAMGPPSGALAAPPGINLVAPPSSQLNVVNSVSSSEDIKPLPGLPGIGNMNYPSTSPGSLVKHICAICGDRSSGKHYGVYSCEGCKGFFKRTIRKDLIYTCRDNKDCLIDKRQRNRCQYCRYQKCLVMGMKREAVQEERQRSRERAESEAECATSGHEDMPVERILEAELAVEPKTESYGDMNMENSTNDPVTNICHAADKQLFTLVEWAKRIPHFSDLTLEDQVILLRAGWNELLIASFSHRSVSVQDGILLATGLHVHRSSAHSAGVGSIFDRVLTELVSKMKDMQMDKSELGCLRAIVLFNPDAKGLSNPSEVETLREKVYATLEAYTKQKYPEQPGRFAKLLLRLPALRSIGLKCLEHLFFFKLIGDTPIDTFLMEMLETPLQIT

[9] = molecular target: Retinoic acid receptor beta (Homo sapiens, UniProt P10826); test: Agonist activity at RARbeta (unknown origin)
Retinoic acid receptor beta, sequence (P10826 whole entry): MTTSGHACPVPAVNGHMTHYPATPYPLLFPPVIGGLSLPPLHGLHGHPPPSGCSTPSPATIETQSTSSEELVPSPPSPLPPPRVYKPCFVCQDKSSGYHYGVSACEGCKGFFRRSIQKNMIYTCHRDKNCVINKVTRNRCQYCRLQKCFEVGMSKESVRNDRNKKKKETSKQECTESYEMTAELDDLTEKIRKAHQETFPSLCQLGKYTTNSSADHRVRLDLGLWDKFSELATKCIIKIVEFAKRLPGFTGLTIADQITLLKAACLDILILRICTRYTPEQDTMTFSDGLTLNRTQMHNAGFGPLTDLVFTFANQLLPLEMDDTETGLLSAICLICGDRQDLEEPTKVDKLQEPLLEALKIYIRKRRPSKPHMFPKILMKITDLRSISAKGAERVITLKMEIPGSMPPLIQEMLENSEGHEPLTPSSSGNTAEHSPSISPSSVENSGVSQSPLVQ

[10] = molecular target: Retinoic acid receptor RXR-beta (Homo sapiens, UniProt P28702); test: Agonist activity at RXRbeta (unknown origin)
Retinoic acid receptor RXR-beta, sequence (P28702 whole entry): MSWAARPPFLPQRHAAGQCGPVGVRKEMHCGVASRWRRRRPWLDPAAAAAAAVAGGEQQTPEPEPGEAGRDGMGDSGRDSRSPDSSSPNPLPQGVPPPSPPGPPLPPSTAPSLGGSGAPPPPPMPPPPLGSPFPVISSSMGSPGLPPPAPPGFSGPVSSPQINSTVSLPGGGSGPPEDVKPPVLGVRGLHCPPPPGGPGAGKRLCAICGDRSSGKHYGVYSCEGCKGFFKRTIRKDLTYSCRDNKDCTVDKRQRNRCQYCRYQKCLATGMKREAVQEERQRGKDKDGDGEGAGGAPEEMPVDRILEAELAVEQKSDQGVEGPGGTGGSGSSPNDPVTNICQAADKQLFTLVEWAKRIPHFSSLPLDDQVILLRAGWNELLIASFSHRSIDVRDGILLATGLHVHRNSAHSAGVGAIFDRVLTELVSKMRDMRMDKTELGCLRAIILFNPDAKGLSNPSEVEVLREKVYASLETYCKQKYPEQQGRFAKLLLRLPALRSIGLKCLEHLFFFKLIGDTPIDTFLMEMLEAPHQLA

[11] = molecular target: Retinoic acid receptor gamma (Homo sapiens, UniProt P13631); test: Agonist activity at RARgamma (unknown origin)
Retinoic acid receptor gamma, sequence (P13631 whole entry): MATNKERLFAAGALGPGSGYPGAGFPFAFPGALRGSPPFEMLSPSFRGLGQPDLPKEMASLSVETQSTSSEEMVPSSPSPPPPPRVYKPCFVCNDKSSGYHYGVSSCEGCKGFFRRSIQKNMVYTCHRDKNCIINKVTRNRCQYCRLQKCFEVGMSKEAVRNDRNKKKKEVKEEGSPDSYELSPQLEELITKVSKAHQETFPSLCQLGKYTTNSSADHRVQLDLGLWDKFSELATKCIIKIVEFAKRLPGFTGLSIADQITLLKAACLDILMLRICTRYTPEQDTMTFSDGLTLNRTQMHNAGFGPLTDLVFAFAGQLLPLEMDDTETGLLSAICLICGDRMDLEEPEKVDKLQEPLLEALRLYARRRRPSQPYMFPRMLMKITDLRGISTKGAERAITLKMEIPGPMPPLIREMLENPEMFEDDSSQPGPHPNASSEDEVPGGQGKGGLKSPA

[12] = molecular target: Retinoic acid receptor alpha (Homo sapiens, UniProt P10276); test: Agonist activity at RARaplha (unknown origin)
Retinoic acid receptor alpha, sequence (P10276 whole entry): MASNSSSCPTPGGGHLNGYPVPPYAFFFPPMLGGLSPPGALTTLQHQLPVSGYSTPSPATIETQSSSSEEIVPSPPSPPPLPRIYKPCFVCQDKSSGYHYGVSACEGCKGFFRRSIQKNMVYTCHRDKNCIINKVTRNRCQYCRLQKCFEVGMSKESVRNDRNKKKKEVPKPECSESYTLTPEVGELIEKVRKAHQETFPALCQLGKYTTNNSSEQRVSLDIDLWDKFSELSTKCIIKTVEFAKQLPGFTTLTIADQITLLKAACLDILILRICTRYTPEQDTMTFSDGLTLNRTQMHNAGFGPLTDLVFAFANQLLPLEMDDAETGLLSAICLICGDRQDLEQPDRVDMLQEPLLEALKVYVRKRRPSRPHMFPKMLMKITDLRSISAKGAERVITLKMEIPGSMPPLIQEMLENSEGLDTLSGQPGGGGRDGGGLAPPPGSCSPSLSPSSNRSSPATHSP

1A9 = test: Cytotoxicity against human 1A9 cells; assay type: functional, cell-based
D(2) dopamine receptor = D(2) dopamine receptor (Homo sapiens, UniProt P14416); test: Displacement of [3H]methylspiperone from human D2 receptor expressed in HEK cells; assay type: cell-based
D(2) dopamine receptor, sequence (P14416 whole entry): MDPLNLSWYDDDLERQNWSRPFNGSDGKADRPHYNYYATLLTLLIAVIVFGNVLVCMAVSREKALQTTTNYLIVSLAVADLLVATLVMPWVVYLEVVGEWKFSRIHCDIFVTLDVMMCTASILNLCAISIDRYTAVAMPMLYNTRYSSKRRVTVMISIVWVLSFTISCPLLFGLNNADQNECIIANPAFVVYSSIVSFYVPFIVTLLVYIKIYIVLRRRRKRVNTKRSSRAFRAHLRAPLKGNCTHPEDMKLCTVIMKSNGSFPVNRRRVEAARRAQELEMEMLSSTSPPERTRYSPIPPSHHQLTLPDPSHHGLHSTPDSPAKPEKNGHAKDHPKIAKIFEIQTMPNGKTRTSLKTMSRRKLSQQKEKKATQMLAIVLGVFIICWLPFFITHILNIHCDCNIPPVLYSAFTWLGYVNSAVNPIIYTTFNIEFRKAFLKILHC

[13] = molecular target: 5-hydroxytryptamine receptor 2A (Homo sapiens, UniProt P28223)
5-hydroxytryptamine receptor 2A, sequence (P28223 whole entry): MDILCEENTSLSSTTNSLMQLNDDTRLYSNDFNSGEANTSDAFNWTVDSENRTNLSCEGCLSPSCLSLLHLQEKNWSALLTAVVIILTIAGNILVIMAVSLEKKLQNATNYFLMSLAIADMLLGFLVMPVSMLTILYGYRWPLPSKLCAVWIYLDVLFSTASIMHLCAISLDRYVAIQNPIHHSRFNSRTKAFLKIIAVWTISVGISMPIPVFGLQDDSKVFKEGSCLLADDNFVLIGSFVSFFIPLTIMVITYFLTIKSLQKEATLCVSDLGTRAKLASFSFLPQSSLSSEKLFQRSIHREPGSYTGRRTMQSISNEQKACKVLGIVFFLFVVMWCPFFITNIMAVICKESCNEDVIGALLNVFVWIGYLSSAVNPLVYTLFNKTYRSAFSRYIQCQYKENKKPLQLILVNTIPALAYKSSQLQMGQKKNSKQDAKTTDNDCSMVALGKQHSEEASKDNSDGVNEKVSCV

A549 = test: Cytotoxicity against human A549 cells; assay type: functional, cell-based
Rattus norvegicus [14] = test: Anti-hypertensive activity in conscious spontaneously hypertensive Okamoto rat assessed as reduction in systolic blood pressure at 0.1 mg/kg, po measured up to 6 hrs post dose relative to control; assay type: functional; set-up: scale not given: the % may be the effect or the level left
Prothrombin = Prothrombin (Bos taurus, UniProt P00735); test: Inhibition of bovine plasma thrombin using chromogenix AB as substrate after 30 secs by UV-spectrophotometry
[15] = system: Human immunodeficiency virus 1; test: Antiviral activity against HIV1; assay type: functional

CC1(C)Oc2ccc([N+](=O)[O-])cc2[C@@H](N2CCCC2=O)[C@@H]1O
Activity (Rattus norvegicus [1]): 63% | Activity (Rattus norvegicus [2]): 27%

COc1ccc2c(c1)-c1c(cnn1C[C@H](C)N)C2
Ki [3]: 2.51 nM

CN[C@@]1(C)[C@H]2CC[C@@H](C2)C1(C)C
fold change (FC) (Homo sapiens): 3

CO[C@@H]1[C@@H](OC(=O)c2ccc(C)[nH]2)[C@@H](O)[C@H](Oc2ccc3c(O)c(NC(=O)c4ccc(O)c(CC=C(C)C)c4)c(=O)oc3c2Cl)OC1(C)C [CHLOROBIOCIN]
IC50 [4]: 30 nM

O=C1CCCN1[C@@H]1c2cc([N+](=O)[O-])ccc2OC[C@H]1O
Activity (Rattus norvegicus [5]): 5%

COC(=O)C[C@](O)(CCCC(C)(C)O)C(=O)O[C@@H]1C(OC)=C[C@]23CCCN2CCc2cc4c(cc2[C@H]13)OCO4 [OMACETAXINE MEPESUCCINATE]
inhibition at 0.05 µM (HeLa): 50% | IC50 (MCF7): 0.87 nM

CC1(C)OB(O)c2cc(NC(=O)c3ccc(F)cc3C(F)(F)F)ccc21 [ACOZIBOROLE]
IC50 [6]: 556 nM

CC1(C)Oc2ccc(C#N)cc2C(N2CCCC2=O)C1O (single isomer, unassigned; (+)) [CROMAKALIM]
Activity (Rattus norvegicus [7]): 14%

COc1ccc(S(=O)(=O)N2CCSCC2C(=O)NO)cc1 (configuration not stated)
IC50 (Matrilysin): 2030 nM

CN[C@]1(C)[C@H]2CC[C@@H](C2)C1(C)C
fold change (FC) (Homo sapiens): 1.4

COc1ccc(S(=O)(=O)N2CCCSC[C@@H]2C(=O)NO)cc1
IC50 (Collagenase 3): 1.9 nM | IC50 (Matrilysin): 1100 nM | IC50 (Interstitial collagenase): 64 nM

C=C(c1ccc(C(=O)O)cc1)c1cc2c(cc1C)C(C)(C)CCC2
EC50 [8]: 600 nM | EC50 [9]: > 10000 nM | EC50 [10]: 770 nM | EC50 [11]: > 10000 nM | EC50 [12]: > 10000 nM

C/C(=C\c1csc(C)n1)[C@@H]1C[C@@H]2O[C@]2(C)CCC[C@H](C)[C@H](O)[C@@H](C)C(=O)C(C)(C)[C@@H](O)CC(=O)N1 [IXABEPILONE]
IC50 (1A9): 6.65 nM

CC1(C)CC(=O)N(CCCCN2CCN(c3ncccn3)CC2)C(=O)C1 [GEPIRONE]
Ki (D(2) dopamine receptor): 4320 nM | Ki [13]: 3630 nM

CO[C@H]1C(=O)[C@]2(C)[C@@H](OC)C[C@H]3OC[C@@]3(OC(C)=O)[C@H]2[C@H](OC(=O)c2ccccc2)[C@]2(O)C[C@H](OC(=O)[C@H](O)[C@@H](NC(=O)OC(C)(C)C)c3ccccc3)C(C)=C1C2(C)C [CABAZITAXEL]
IC50 (A549): 1.48 nM

CC1Oc2ccc([N+](=O)[O-])cc2[C@@H](N2CCCC2=O)[C@@H]1O (some centres not stated)
Activity (Rattus norvegicus [5]): 34%

CC1(C)Oc2ccc(C#N)cc2C(N2CCCC2=O)C1O (racemic) [CROMAKALIM]
Activity (Rattus norvegicus [14]): 13% | Activity (Rattus norvegicus [1]): 47% | Activity (Rattus norvegicus [2]): 39%

N=C(N)NCCC[C@H](NS(=O)(=O)c1cccc2c1NCCC2)C(=O)N1CCC(CCO)CC1
Ki (Prothrombin): 500 nM

CCCc1cc(=O)oc2c3c(c4c(c12)OC(C)(C)C=C4)O[C@H](C)[C@@H](C)[C@@H]3O [CALANOLIDE A]
EC50 [15]: 2.85 nM

CNC1C[C@H]2CC[C@H]1C2 (mixture of isomers)
fold change (FC) (Homo sapiens): > 40

C[C@H]1CNc2c(cccc2S(=O)(=O)N[C@@H](CCCNC(=N)N)C(=O)N2CCC(CCO)CC2)C1
Ki (Prothrombin): 50 nM
